Assay results taken from publication PMC10987348, “Ammonium nanochelators in conjunction with arginine-specific enzymes in amperometric biosensors for arginine assay” (Mikrochimica Acta, 2023).

Target: T1, ADI (Metamycoplasma hominis, UniProt P41141)
T1 construct: gene arcA
Test: amperometric detection of released ammonium (ADI/nCdCu/GCE electrode)
Type: biochemical
Details: immobilised enzyme on nCdCu-modified glassy carbon; pH 7.5; -200 mV vs Ag/AgCl

T1 sequence (P41141 2-409): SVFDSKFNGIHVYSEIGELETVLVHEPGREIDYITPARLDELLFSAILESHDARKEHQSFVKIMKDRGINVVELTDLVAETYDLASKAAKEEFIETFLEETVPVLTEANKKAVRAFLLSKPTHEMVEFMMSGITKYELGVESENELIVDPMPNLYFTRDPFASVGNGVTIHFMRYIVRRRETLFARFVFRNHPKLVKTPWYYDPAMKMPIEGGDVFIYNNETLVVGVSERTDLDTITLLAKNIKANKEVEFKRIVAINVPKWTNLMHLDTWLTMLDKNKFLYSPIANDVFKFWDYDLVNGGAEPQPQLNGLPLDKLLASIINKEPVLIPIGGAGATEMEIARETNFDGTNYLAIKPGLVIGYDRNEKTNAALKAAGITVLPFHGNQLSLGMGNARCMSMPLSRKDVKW

## N=C(N)NCCC[C@H](N)C(=O)O [L-arginine]
  amperometric detection of released ammonium (ADI/nCdCu/GCE electrode): electrocatalytic activity of three bioelectrodes was evaluated by using CV under the addition of Arg
